Experimental data as given in the SangsterLogP compilation.

What was measured:
[1] = method code RP-HPLC, from DOI: 10.1081/jlc-120027619; settings: pH 3.1
[2] = method code SF-AS, from DOI: 10.1081/jlc-120027619

| Structure (SMILES) | logD [1] | logP [2] |
| --- | --- | --- |
| C[C@H]1COC2=C1C(=O)C(=O)c1c2ccc2c1CCCC2(C)C | 4.72 | – |
| Cc1coc2c1C(=O)C(=O)c1c-2ccc2c(C)cccc12 | 4.65 | – |
| Cc1coc2c1C(=O)C(=O)c1c-2ccc2c1CCCC2(C)C | 5.4 | – |
| O=C(O)C(O)Cc1ccc(O)c(O)c1 (configuration not stated) | 0.11 | – |
| O=Cc1ccc(O)c(O)c1 | 0.82 | – |
| Cc1cccc2c3c(ccc12)C1=C(C(=O)C3=O)[C@@H](C)CO1 | – | 3.14 |
| O=c1c(-c2ccc(O)cc2)coc2c([C@@H]3O[C@H](CO)[C@@H](O)[C@H](O)[C@H]3O)c(O)ccc12 | 1.34 | – |

More lines, main results first:

| logD [1] | Structure (SMILES) | logP [2] |
| --- | --- | --- |
| 4.39 | Cc1cc(O)c2c(c1)C(=O)c1cccc(O)c1C2=O | – |
| 3.68 | O=C(O)c1cc(O)c2c(c1)C(=O)c1cccc(O)c1C2=O | – |
| 4.93 | COc1cc(O)c2c(c1)C(=O)c1cc(C)cc(O)c1C2=O | – |
| 4.48 | Cc1cc(O)c2c(c1)C(=O)c1cc(O)cc(O)c1C2=O | – |
| 3.18 | O=C1c2cccc(O)c2C(=O)c2c(O)cc(CO)cc21 | – |
